Reference: US12178825B2, “Method and compositions for forming a copper-containing complex and uses thereof” (COLD SPRING HARBOR LABORATORY, priority 2017, dated 2024)
“Also recorded” adds a separate entry of the source. Read-outs that look alike come from different tables or passages of the source.

Legend:
[1] = target: T1, PTP1B1-405 (Homo sapiens, UniProt P18031); experiment: PTP1B phosphatase activity assay, DiFMUP substrate, long form; assay type: biochemical
T1 construct: PTP1B1-405 (the long form of PTP1B which contains the extended C-terminal segment); made in house; host or cells: Escherichia coli BL21 (DE3)-RIL
T1 sequence (P18031 1-405): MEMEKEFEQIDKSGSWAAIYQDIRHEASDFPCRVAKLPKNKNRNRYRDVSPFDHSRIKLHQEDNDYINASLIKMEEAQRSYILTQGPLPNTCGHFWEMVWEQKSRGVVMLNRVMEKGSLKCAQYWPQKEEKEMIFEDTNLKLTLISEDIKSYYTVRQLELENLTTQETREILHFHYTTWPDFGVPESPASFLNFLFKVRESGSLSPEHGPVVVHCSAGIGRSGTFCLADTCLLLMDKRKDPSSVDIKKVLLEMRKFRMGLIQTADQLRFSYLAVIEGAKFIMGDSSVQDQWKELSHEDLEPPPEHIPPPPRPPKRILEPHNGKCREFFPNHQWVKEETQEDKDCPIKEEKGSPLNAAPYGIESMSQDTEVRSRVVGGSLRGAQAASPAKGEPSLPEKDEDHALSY
Experimental: (§1) All common reagents were obtained from Thermo Fisher Scientific (Waltham, MA) or Sigma-Aldrich (St. Louis, MO). Difluoro-4-methylumbelliferyl phosphate (DiFMUP) was obtained from Invitrogen (cat #D22065). Solid black 384-well plates (cat #3573) for phosphatase assays were from Corning Incorporated (Corning, NY).
Wild-type PTP1B containing a His-tag was expressed in Escherichia coli BL21 (DE3)-RIL using LB. Cells were resuspended in lysis buffer (50 mM Hepes pH 7.2, 150 mM NaCl, 10 mM imidazole, 2 mM TCEP) with cOmplete EDTA-free Protease Inhibitor Cocktail (Roche), and then lysed using a sonicator at 4° C. Lysates were clarified by centrifugation. Initial protein purification was by gravity flow, nickel column chromatography. Protein was used immediately or stored at −80° C. in 50 mM HEPES pH 7.4, 100 mM NaCl, 2 mM dithiothreitol and 25% glycerol.

[2] = test system: PTP1B1-367, PTP1B1-346 and PTP1B1-321; experiment: Phosphatase assay with C-terminal truncation mutants; assay type: biochemical
Text: as §1

[3] = test system: JAK2; experiment: Leptin signaling in hypothalamus of treated mice; assay type: in vivo; conditions: leptin-induced
Experimental: Technology (JAK2, catalog 3230, clone D2E12; p-T308 AKT (catalog 13038, clone D25E6); AKT (catalog 4691, clone C67E7) and Sigma-Aldrich (actin, catalog A2228, clone AC-74).
(§2) All protocols were approved by the Institutional Animal Use and Care Committee of Cold Spring Harbor laboratory. 10 week-old male mice fed chow diet or high-fat diet (D12492) were acclimatized for 10 days under standard conditions before experiments. Mice were injected intraperitoneally (i.p.) once daily with vehicle, 5 mg/kg of DPM-1001 intraperitoneally or orally for 50 days. Mice were euthanized after 6 h of fasting, and serum samples were collected to measure the metabolic parameters and tissue samples were collected for studying changes in signaling.

[4] = test system: TX mice; experiment: Liver histology; assay type: in vivo, mouse
Text: Liver tissues from wild-type and TX mice from untreated and DPM-1001-treated mice were sectioned and stained with H&E or rhodanine. Whole-slide, digitized images of H&E-stained tissue were captured using the Aperio ScanScope XT automated scanning system (Vista, CA). Image J software was used to quantitate rhodanine staining.

[5] = test system: TNBC cells; experiment: Annexin V and propidium iodide staining; assay type: cell-based
Experimental: Cells (1×10^5) were plated in six-well plates in growth medium. The cells were untreated or treated with DPM-1001 (2 μM). Following which, cells were washed with cold PBS twice and resuspended in 0.1 M Hepes/NaOH (pH 7.4), 1.4 M NaCl, 25 mM CaCl2). To the cell suspension 5 μl of fluorescein isothiocynate (FITC)-conjugated annexin V (0.1 mg/ml) and propidium iodide (1 mg/ml) were added and the samples were incubated in dark for 30 minutes at room temperature. The samples were analyzed by flow cytometry (Becton Dickinson LSRII Cell Analyzer).

[6] = Glucose tolerance and insulin tolerance tests; assay type: in vivo, C57Bl6/J mice; conditions: HFD-fed mice, orally or intraperitoneally
Experimental: as §2
Glucose in tail blood was measured using a glucometer (One-Touch Basic; Lifescan, CA). For glucose tolerance tests (GTTs), mice were fasted for 10 hours and then injected 20% D-glucose (2 mg/g body weight) and the blood glucose was monitored immediately before and at 15, 30, 60 and 120 mins following the injection. For insulin tolerance tests (ITTs), 4-h fasted animals were given insulin (0.75 mU/g) and blood glucose was measured immediately before and at 30, 60 and 120 minutes postinjection. Statistical analysis was performed using ANOVA for both GTT and ITT.

COC(=O)CCC(C)C1CCC2C3C(O)CC4CC(NCCCCNCc5ccccn5)CCC4(C)C3CCC12C (centres unmarked) [DPM-1001]
IC50 ([1]; after a 30 minute pre-incubation, read-out: IC50 for PTP1B1-405): 100 nM | IC50 ([1]; compound pre-incubated with PTP1B, read-out: IC50, inhibition of PTP1B): 100 nM | reversibility of inhibition of PTP1B1-405 ([1]; enzyme-inhibitor complex diluted, activity recovery monitored): remained inactive over an extended period of time | IC50 ([1]; long form PTP1B1-405, DiFMUP substrate (FIG. 1), read-out: IC50, inhibition of the phosphatase): 100 nM | IC50 ([1]; no pre-incubation, read-out: IC50 for PTP1B1-405): 600 nM | time dependence of inhibition of PTP1B1-405 ([1]; presence of catalase): no obvious time dependence of inhibition | time dependence of inhibition of PTP1B1-405 ([1]; presence or absence of PRX1): time-dependent increase in potency | inhibitory potency for truncation mutants relative to PTP1B1-405 and PTP1B1-394 [2]: lower | phosphorylation of JAK2 [3]: increased leptin-induced JAK2 phosphorylation; also recorded: enhanced phosphorylation of JAK2 | liver morphology ([4]; TX mice): prevents the enlarged hepatocytes with irregular shape and arrangement large cytoplasmic lipid droplets in liver; also recorded: appeared similar to those from wild-type mice with normal hepatocyte size, shape and arrangement | liver morphology ([4]; wild-type mice): no obvious abnormalities were detected | mechanism of reduced cell survival [5]: due to promoting death of these cells | glucose tolerance ([6]; D-glucose 2 mg/g): lower rise in blood glucose levels; also recorded: improved glucose tolerance | insulin sensitivity (insulin tolerance test) ([6]; insulin 0.75 mU/g): enhanced the effect of insulin to reduce blood glucose levels; also recorded: improved
